These results are taken from patent US20080038374A1, “New Use” (Lipopeptide AB, priority 2004, published 2008).

Molecules are shown by their SMILES.

In one assay the test system is hCAP18/LL-37. The assay is described as follows: hCAP18 and LL-37 protein in acute wounds, Western blot. It is filed as in vivo, human. From the text:
(§1) The investigation was non-randomized, single blinded including four females and five males, age 22-30 years. Only fair skinned, young and healthy individuals were included and the tissue was obtained from the same body location in a non-sun exposed area. Each individual obtained 3 wounds in the left and the right inguinal region, respectively. The topical treatment with vitamin D was applied on one side and the control treatment on the contra lateral side. To each of the wounds on one side, 25 μg calcipotriol in 0.5 g ointment (Daivonex, LEO Pharma, Malmo, Sweden) was applied to a total test area of 2×2.25 cm, including one wound with surrounding intact skin. The control wounds in the opposite inguinal region were treated with vaseline (ACO, Stockholm, Sweden). All wounds were covered with inert dressing (Melolin, Smith and Nephew, Hull, U K; Mefix, Molnlycke A B, Gothenburg, Sweden; Tegaderm, 3M Health Care, St. Paul, USA). After 12 hours the dressing was changed and the treatment was repeated. In the first four individuals investigated the bandage was removed at 24 hours and the wounds were excised with a 6 mm biopsy punch and snap frozen. […]
Protein was calculated from frozen biopsies from patients (n=5) cut in 50 μm sections and homogenized. […] Protein concentrations were measured by Protein Assay Kit (Bio-Rad Laboratories, Hercules, USA) based on the Bradford method (Bradford 1976). […]

The test system of another assay is hCAP18. The assay is described as follows: hCAP18 mRNA in acute surgical wounds of healthy volunteers, Real-Time RT-PCR. In kind it is in vivo, human. The following applies: topical, 24 h, nine probands, relative to vaseline control wound. How it is done: To assess whether treatment with a vitamin D compound can further enhance the up-regulation of hCAP18 during acute skin injury, fresh surgical wounds in healthy volunteers (n=9) were treated with vitamin D ointment.
as §1, with “repeated.” for “repeated. In the first four individuals investigated the bandage was removed at 24 hours and the wounds were excised with a 6 mm biopsy punch and snap frozen.”
Expression of hCAP18 mRNA was quantified by Real-Time PCR, as described in Example 1. […]
(In general: In qPCR the cycle at which signal appears reflects the starting amount.)

For `C=C1/C(=C\C=C2/CCC[C@]3(C)[C@@H]([C@H](C)/C=C/[C@@H](O)C4CC4)CC[C@@H]23)C[C@@H](O)C[C@@H]1O` [calcipotriol], the “immunoreactive bands of the processed peptide LL-37 versus control wounds” value in the assay with hCAP18/LL-37 was “in all three individuals, stronger immunoreactive bands”. Moreover, the “immunoreactive bands of the 18 kDa hCAP18 holoprotein versus control wounds” value in the assay with hCAP18/LL-37 (24 and 48 hours, five individuals) is “three of the five individuals investigated demonstrated stronger immunoreactive bands”. Also, the “up-regulation of hCAP18 mRNA in acute wounds” value in the assay with hCAP18 is listed as “enhances the up-regulation of hCAP18 mRNA”.
